# Tests used:
# [1] = tested on: in vitro eye lens of rats; assay: resisting oxidative damage to in vitro eye lens of rats induced by H2O2 (lens opacification grading); format: cell-based; conditions: rat lens; for Comments (improvement versus model group) / Observation Results + (number of lenses with mild opacity, degree I) / Observation Results ++ (number of lenses with moderate opacity, degree II) / Percentages % + Degree (I) / Percentages % >++ Degrees (II, III) / Observation Results +++ (number of lenses totally opacified, degree III): 5% H2O2 + 0.02% FeCl3, 24 h culture, sample and BDL 0.5 mmol/L; for Observation Results + (number of lenses with mild opacity, degree I) / Observation Results ++ (number of lenses with moderate opacity, degree II) / Percentages % + Degree (I) / Percentages % >++ Degrees (II, III) / Observation Results +++ (number of lenses totally opacified, degree III): vitamin C 1 mmol/L; for inhibitory effects on oxidative damage to in vitro eye lens of rats induced by H2O2: sample 0.5 mmol/L, summary of table 2
# Excerpt: (§1) Some typical compounds are selected for the research on the capability of in vitro resisting oxidative damage to crystalline lens induced by H2O2. The experiments are illustrated as follows:
# (§2) Kill rats and rabbits, take out their eyeballs and rinse with saline containing 500 u/mL penicillin, split the eyeball from the posterior to remove eyeball wall and vitreous body, strip off the suspensory ligament, take out the crystalline lens and wash with PBS solution containing 500 u/mL penicillin and 0.5 mg/mL streptomycin for 5 min Before experiment, check with anatomical lens to confirm that there is no opacification or other abnormal condition in the crystalline lens, then place the crystalline lens in the sterilized 12-well plate containing 2 mL DMEM/high glucose (a product from Beijing Thermo Fisher Scientific Biochemical Product Co., Ltd.) sterile culture solution (which contains 100 u/mL penicillin and 0.1 mg/mL streptomycin), add different compounds for screening and pre-culture in a incubator with temperature of 37° C., humidity of 95% and 5% CO2 for 1 h, subsequently add 2 mL DEME culture solution containing H2O2 and FeCl3 (namely, total 4 mL culture solution in each well) (the total concentration of H2O2 in each well is 2% for rabbits, and 5% for rats, and the concentrations of FeCl3 are all 0.02%), culture under the same conditions for 24 hours. The experiments are divided into several groups as below and carried out in batches, with each batch provided with negative control group and model group.
# (§3) A. Negative control group: DMEM culture solution without H2O2.
# (§4) B. Model group (oxidative damage group): DMEM culture solution containing H2O2 and FeCl3.
# (§5) C. Vitamin C group: besides the ingredients of the model group, further containing vitamin C (the final concentration is 1 mmol/L).
# (§6) D. Bendazac lysine (BDL) group (BDL is provided by Zhejiang Shapuaisi Pharmaceutical Co. Ltd., and its purity is more than 98.5%): besides the ingredients of model group, further containing BDL (the final concentration is 0.5 mmol/L).
# (§7) E. Sample group: besides the ingredients of model group, further containing sample (the final concentration is 0.5 mmol/L).
# (§8) Evaluation criteria: according to large amount of experiments on the model group, the ratio between the percentage of different degrees of lens turbidity in the groups and the percentage of different degrees of lens turbidity in the model group is utilized as the definition, wherein, for slight improvement (√), the percentage of ++ (degrees II, III) should be lower than 72%, and the percentage of + (degree I) should be higher than 20%; for moderate improvement (√√) the percentage of ++(degrees II, III) further decreases; and the percentage of 0 (−) appears; for significant improvement (√√√), the percentage of ++ (degrees II, III) and +(degree I) disappears, and the lens are almost transparent.
# [2] = tested on: in vitro eye lens of rabbits; assay: resisting oxidative damage to in vitro eye lens of rabbits induced by H2O2 (lens opacification grading); format: cell-based; conditions: rabbit lens; for Observation Results + (number of lenses with mild opacity, degree I) / Observation Results ++ (number of lenses with moderate opacity, degree II) / Percentages for different degrees % + Degree (I) / Percentages for different degrees % >++ Degrees(I, II) / Observation Results +++ (number of lenses totally opacified, degree III) / Comments (improvement versus model group): 2% H2O2 + 0.02% FeCl3, 24 h culture, sample and BDL 0.5 mmol/L; for Observation Results + (number of lenses with mild opacity, degree I) / Observation Results ++ (number of lenses with moderate opacity, degree II) / Percentages for different degrees % + Degree (I) / Percentages for different degrees % >++ Degrees(I, II) / Observation Results +++ (number of lenses totally opacified, degree III): vitamin C 1 mmol/L; for inhibitory effects on oxidative damage to in vitro eye lens of rabbits induced by H2O2: sample 0.5 mmol/L, table 1
# Excerpt: as §1, §2, §3, §4, §5, §6, §7
# as §8, with “lens opacification” for “lens turbidity”, “than 67%,” for “than 72%,”, “than 33%;” for “than 20%;”, “improvement (√√),” for “improvement (√√)”, “and + (degree” for “and +(degree”
SMILES,Comments (improvement versus model group) [1],"Observation Results + (number of lenses with mild opacity, degree I) [1]","Observation Results ++ (number of lenses with moderate opacity, degree II) [1]",Percentages % + Degree (I) [1] [%],"Percentages % >++ Degrees (II, III) [1] [%]",inhibitory effects on oxidative damage to in vitro eye lens of rats induced by H2O2 [1],"Observation Results + (number of lenses with mild opacity, degree I) [2]","Observation Results ++ (number of lenses with moderate opacity, degree II) [2]",Percentages for different degrees % + Degree (I) [2] [%],"Percentages for different degrees % >++ Degrees(I, II) [2] [%]",inhibitory effects on oxidative damage to in vitro eye lens of rabbits induced by H2O2 [2],"Observation Results +++ (number of lenses totally opacified, degree III) [1]","Observation Results +++ (number of lenses totally opacified, degree III) [2]",Comments (improvement versus model group) [2]
"O=C([O-])C(Oc1nn(Cc2ccccc2)c2ccccc12)C(=O)[O-].[Na+].[Na+] [Y1, 2-(1-benzyl-1H-indazole-3-oxyl) malonate disodium]",✓,4,1,80,20,showing inhibitory effects,4,3,57,43,not significant,,,
"O=C([O-])C(Oc1nn(Cc2ccccc2)c2ccccc12)C(=O)[O-].[K+].[K+] [Y2, 2-(1-benzyl-1H-indazole-3-oxyl) malonate dipotassium]",,,3,,100,not significant,2,3,29,71,not significant,3,2,
"O=C1O[C@H]([C@@H](O)CO)C(O)=C1O [VC, vitamin C, reference compound]",,7,8,39,61,,13,16,42,58,,3,2,
"NCCCC[C@H](N)C(=O)O.NCCCC[C@H](N)C(=O)O.O=C(O)C(Oc1nn(Cc2cccc(Cl)c2)c2ccccc12)C(=O)O [Y19, 2-[1-(3-chloro-benzyl)-1H-indazole-3-oxyl]malonate dilysine]",✓,18,10,56,44,showing inhibitory effects,,,,100,not significant,4,3,
"N[C@@H](Cc1c[nH]cn1)C(=O)O.N[C@@H](Cc1c[nH]cn1)C(=O)O.O=C(O)C(Oc1nn(Cc2ccccc2)c2ccccc12)C(=O)O [Y4, 2-(1-benzyl-1H-indazole-3-oxyl) malonate dihistidine]",✓,18,3,86,14,showing inhibitory effects,14,7,67,33,showing inhibitory effects,,,✓
"NCCCC[C@H](N)C(=O)O.NCCCC[C@H](N)C(=O)O.O=C(O)C(Oc1nn(Cc2cccc(F)c2)c2ccccc12)C(=O)O [Y14, 2-[1-(3-fluoro-benzyl)-1H-indazole-3-oxyl) malonate dilysine]",✓,10,8,56,44,showing inhibitory effects,,,,,,,,
"NCCCC[C@H](N)C(=O)O.NCCCC[C@H](N)C(=O)O.O=C(O)C(Oc1nn(Cc2ccccc2)c2ccccc12)C(=O)O [Y5, 2-(1-benzyl-1H-indazole-3-oxyl) malonate dilysine]",,1,4,17,83,showing inhibitory effects,2,2,33,67,not significant,1,2,
"O=C([O-])C(Oc1nn(Cc2cccc(F)c2)c2ccccc12)C(=O)[O-].[Na+].[Na+] [Y10, 2-[1-(3-fluoro-benzyl)-1H-indazole-3-oxyl) malonate disodium]",✓,47,28,60,40,not significant,4,1,80,20,showing inhibitory effects,3,,✓

# — US8637677B2, “Organic dicarboxylic acids, salts and preparation method thereof” (Southeast University, priority 2009, dated 2014)
